# Measured values reported in PMC10892451, “Evaluation of the Antibacterial Activity of New Dermaseptin Derivatives against Acinetobacter baumannii” (Pharmaceuticals, 2024).
# Ends that are not written are not given here.
# How the values were obtained:
# [1] = system: A. baumannii clinical specimen MDR; experiment: microbe, parasite or virus in culture; conditions: for A. baumannii MIC: broth microdilution, Mueller-Hinton broth, 5 × 10^5 CFU/mL, 24 h at 37 °C, clinical MDR isolate, triplicate
# Method: (§1) The bacterial strain used in the present study came from the stock culture of the microbiology laboratory of the Federal University of the Delta of Parnaíba—UFDPar, Parnaíba—PI, Brazil. The strain used in the tests was A. baumannii clinical specimen MDR (multidrug resistant), which developed resistance to major antibiotic classes and carbapenem-resistant isolates. Before performing all experiments, the selected strains were cultured in Petri dishes containing Mueller-Hinton agar (Difco™, Piaui, Brazil). Then, under aerobic conditions, they were incubated in a bacteriological oven for 24 h at 35 ± 2 °C. After incubation, the colonies that grew alone were collected with a disposable bacteriological loop and suspended in a sterile saline solution (0.85% NaCl (w/v), Parnaíba—UFDPar, Piaui, Brazil) in order to reach an absorbance pattern between 0.08 and 0.13 at 625 nm, as tested with a UV-vis spectrophotometer (Shimadzu, Japan), thus corresponding to 0.5 McFarland scale (1–2 × 10^8 CFU/mL), as recommended by the Clinical Laboratory Standards Institute CLSI [75]. Once standardized, the obtained bacterial suspension was used to prepare the bacterial inoculum used in the execution of MIC determination protocols.
# (§2) In accordance with the standards recommended by CLSI [75], the antibacterial potential of the peptides was evaluated with the method of determining the MIC, i.e., the broth microdilution method. Using a 96-well microdilution plate (KASVI, Parnaíba, Brazil), the antibacterial effect was analyzed against the bacterial strains. Therefore, 5 μL of each peptide was added to the first line of the microtiter wells containing 195 μL Mueller-Hinton (M-H) broth (Life Technologies, New York, NY, USA), followed by two-fold serial dilutions with final concentrations ranging from 25 µg/mL to 0.19 µg/mL for all peptides. The volume of the bacterial inoculum was equal to 50 µL, which was added to the test wells with the M-H broth at the beginning of the experiment to give a final concentration of 5 × 10^5 CFU/mL and to reach a final volume of 100 μL in each well after discarding the last additional volume of 100 μL following the serial dilution. MIC was defined as the lowest concentration of an antibacterial agent expressed in μg/mL, which, under strictly controlled in vitro conditions, completely prevents visible bacterial growth after incubation for 24 h at 37 °C in aerobic conditions. […] All tests were performed in triplicate. In order to guarantee the quality and safety of the protocols of this study, the manipulation of bacterial strains was performed under aseptic conditions.
# [2] = system: A. baumannii clinical specimen MDR; experiment: microbe, parasite or virus in culture; conditions: for A. baumannii MBC: 10 μL of wells at or above MIC seeded onto Mueller-Hinton agar, clinical MDR isolate, triplicate
# Method: After determining the MIC, the MBC was assessed against A. baumannii MDR. Meropenem was used as an antibacterial control drug. The loaded solvent saline served as a negative control. […] Meropenem targets Gram-positive and Gram-negative bacteria, as well as anaerobic bacteria. Similar to other carbapenems, meropenem disrupts the synthesis of bacterial cell walls, inhibiting growth and leading to cell death.
# as §1, §2
# A. baumannii MDR = experiment: AFM average surface roughness of treated bacteria; format: cell-based, Acinetobacter baumannii; conditions: AFM tapping mode, bacteria from MIC assay wells after 24 h, n = 10 areas of 0.3 × 0.3 µm; non-treated bacteria 25.77 nm
# Text: In order to understand how our cationic peptide eliminates bacteria, we must consider its effect on the outer membrane found in Gram-negative bacteria. Here, we use atomic force microscopy (AFM) to directly investigate K4S4(1-16) interactions with the outer membrane of A. baumannii and characterize the biophysical consequences of K4S4(1-16) treatment. However, Gram-negative bacteria are complex organisms, with two membranes and molecular machinery dedicated to maintaining membrane stability. The images show the morphology of a clinical strain of A. baumannii before and after treatment with the derivative. […] The cell differed considerably from the cocci-bacilli-shaped cell observed without peptide treatment. Therefore, this cationic peptide appears to have a highly disruptive effect. […]
# With the objective of observing possible morphological alterations caused by the action of an active peptide from the DRS families, bacterial growth control and bacteria treated with K4S4 (1-16) were evaluated using Atomic Force Microscopy (AFM). […]
# Statistical analyses were performed with the GraphPad Prism 9.0 software (GraphPad Software Inc.) for cell viability assays. The difference between the average roughness (Ra) was statistically analyzed using t Test in the GraphPad Prism 8.0 software. […]
# HEp-2 cells [3] = experiment: MTT cytotoxicity assay on HEp-2 cells; format: cell-based, human; conditions: peptide concentration causing 50% cytotoxicity, 72 h treatment, 1.5-100 μg/mL, triplicate at three different times
# Method: It was obtained from the American Type Culture Collection (ATCC, Manassas, VA, USA). Cells were routinely maintained in a humidified atmosphere of 5% CO2 at 37 °C. The Culture Medium Dulbecco’s Modified Eagle Medium (DMEM) (Biofaster, Tunis, Tunisia) was supplemented with 1% L-glutamine, 1% penicillin/streptomycin and 10% (v/v) heat inactivated fetal bovine serum (FBS)(Biofaster, Tunis, Tunisia).
# The cytotoxicity test consisted of measuring the viability of cells in culture when they came into contact with the peptides being tested. Cytotoxicity was determined using the 3-(4,5-dimethylthiazol-2-yl)-2,5-diphenyl tetrazolium bromide (MTT) colorimetric assay on cultured cells (HEp-2 lines). […] After 72 h of incubation, the supernatant was collected and the viability of the cells treated with the peptides was determined by the MTT method. […] After 4 h of incubation at 37 °C, the optical density (OD) was measured at 570 nm using an ELISA reader (Multiskan EX, Labsystems, Paris, France), after adding 100 μL of DMSO to dissolve the crystals of formazan. The results were expressed as a percentage of viability relative to the negative control without a peptide, according to the formula: (Viability percentage = (DO544 nm peptide/DO544 nm control) × 100). […]
# HEp-2 cells [4] = conditions: cited from earlier work
# Method: (§3) Cells were exposed to increasing concentrations of peptides, ranging from 1.5 to 100 μg/mL. The cytotoxicity of DRSs was concentration dependent, and peptide 50% cytotoxic concentration (CC50) values were determined (Table 2).
# [5] = cited from earlier work
# [6] = system: multi-drug resistant Salmonella Enteritidis; conditions: cited from earlier work
# [7] = cited from earlier work; remark: listed apart in the source
# Method: as §3
compound,measurement,setting,value
C[C@@H](O)[C@H]1C(=O)N2C(C(=O)O)=C(S[C@@H]3CN[C@H](C(=O)N(C)C)C3)[C@H](C)[C@H]12 [meropenem],MIC,"[1]; Acinetobacter baumannii, 24 h, read-out: A. baumannii MIC",32 µg/mL
same,MBC,"[2]; Acinetobacter baumannii, read-out: A. baumannii MBC",64 µg/mL
ALWKTLLKKVLKAAAK [K4S4(1-16)],roughness on the cell surface after treatment,A. baumannii MDR,43.41 nm
same,A. baumannii MIC,[1],6.25 µg/mL
same,CC50 Hep-2 Cells,HEp-2 cells [3],68.9 µg/mL
same,A. baumannii MBC,[2],12.5 µg/mL
ALWKTLLKKVLKAAAKAALKAVLVGANA [K4K20S4],A. baumannii MIC,[1],3.125 µg/mL
same,A. baumannii MBC,[2],6.25 µg/mL
ALWMTLLKKVLKAAAKAALNAVLVGANA-OH [S4],maximal non-cytotoxic concentration,HEp-2 cells [4],16 µg/mL
same,hemolytic effect,[5],potent hemolytic effect
same,A. baumannii MIC,[1],12.5 µg/mL
same,A. baumannii MBC,[2],25 µg/mL
GLKKKIKEVGKEAAKAAAKAAGKAALGAVSEAV [K3K4B2],A. baumannii MIC,[1],6.25 µg/mL
same,A. baumannii MBC,[2],12.5 µg/mL
GLWSKIKEVGKEAAKAAAKAAGKAALGAVSEAV-OH [B2],A. baumannii MIC,[1],12.5 µg/mL
same,A. baumannii MBC,[2],25 µg/mL
"lactoferricin (17–30): other AMP from the literature (CLAAPRKNVRWCTI; ends and bridges not checked; cysteine pairing not given here; UniProt P24627 17-30, looked up, fragment)",MIC,[6],128 µg/mL
same,cytotoxicity at lower concentrations,[7]; 1X and 2X MIC,negligible cytotoxicity
same,cytotoxicity at 4X MIC,[7]; 4X MIC,slightly higher cytotoxicity
